The source of these data is patent publication EP4428122A1, “SORTILINE MODULATORS” (Vesper Bio Aps, priority 2023, dated 2024).

Experiment [1] has as its target T1, h-Sortilin (Homo sapiens, UniProt Q99523).
T1 sequence (Q99523 78-831): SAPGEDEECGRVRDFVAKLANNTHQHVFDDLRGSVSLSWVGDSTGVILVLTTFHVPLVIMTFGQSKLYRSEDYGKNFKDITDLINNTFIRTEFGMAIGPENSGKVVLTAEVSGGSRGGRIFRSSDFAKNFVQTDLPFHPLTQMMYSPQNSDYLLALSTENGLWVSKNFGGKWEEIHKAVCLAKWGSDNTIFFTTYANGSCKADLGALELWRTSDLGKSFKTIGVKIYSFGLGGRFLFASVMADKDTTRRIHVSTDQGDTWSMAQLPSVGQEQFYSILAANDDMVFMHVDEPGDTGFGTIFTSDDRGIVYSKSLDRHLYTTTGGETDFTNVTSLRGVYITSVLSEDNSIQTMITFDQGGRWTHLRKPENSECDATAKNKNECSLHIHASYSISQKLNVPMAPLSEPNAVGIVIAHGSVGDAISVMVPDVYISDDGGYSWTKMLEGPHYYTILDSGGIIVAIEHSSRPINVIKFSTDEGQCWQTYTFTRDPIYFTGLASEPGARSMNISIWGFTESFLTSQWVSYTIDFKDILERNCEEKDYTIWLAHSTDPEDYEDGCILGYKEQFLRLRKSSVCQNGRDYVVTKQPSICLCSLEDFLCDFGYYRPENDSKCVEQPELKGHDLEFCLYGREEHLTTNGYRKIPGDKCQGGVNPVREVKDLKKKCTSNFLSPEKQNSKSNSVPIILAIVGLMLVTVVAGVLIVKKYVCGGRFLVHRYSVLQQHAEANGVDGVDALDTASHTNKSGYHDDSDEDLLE
The experiment can be described thus: Neurotensin scintillation proximity assay (SPA), displacement of [3H]-neurotensin binding. To be noted: 150 nM 6his-Sortilin, 5 nM [3H]-Neurotensin, 8 concentrations, average of at least 2 determinations. As to the method:
The exemplified compounds of the invention were tested in a Neurotensin (NTS) scintillation proximity assay (SPA). NTS, which is a 13 amino acid neuropeptide, is a sortilin ligand. The IC50 is a measure of the amount of the compound required to inhibit the binding of NTS to sortilin by 50%. The skilled person will recognise that the lower the IC50 value, the less of the compound needed to achieve the desired effect, and as a result, the chances of undesirable off-target effects are reduced.
Compound affinity was determined by measuring the displacement of [^3H]-neurotensin binding to h-Sortilin in SPA format. Total volume of 40 µl in 50 mM HEPES pH 7.4 assay buffer containing 100 mM NaCl, 2.0 mM CaCl2, 0.1% BSA and 0.1% Tween-20. Compound pre-incubation for 30 minutes at room temperature with 150 nM of 6his-Sortilin before 5 nM [3H]-Neurotensin and Ni chelate imaging beads (Perkin Elmer) were added, after 6 hours the plate was read on a ViewLux with 360 s exposure time. Dose-response evaluation of compounds was performed with 8 concentrations of drugs (covering 3 decades). IC50 values were calculated by nonlinear regression using the sigmoid concentration-response (variable slope) using CDD Vault software. All values reported are average of at least 2 determinations.
(In general: Scintillation proximity formats need no separation of bound from free tracer.)

In experiment [2] the target is T2, Human (6-His)Sortilin (Homo sapiens, UniProt Q99523).
T2 construct: purchased RnD Systems
T2 sequence (Q99523 78-831): T1 sequence (Q99523 78-831)
The experiment can be described thus: Human Sortilin GCI (Grating-Coupled Interferometry) binding assay. To be noted: Creoptix WAVE-RAPID, single concentration, immobilised Human (6-His)Sortilin, 1:1 kinetic binding model; read-out: h-Sortilin GCI KD. As to the method:
The exemplified compounds of the invention were tested in a Grating-Coupled Interferometry (GCI) Sortilin binding assay. The Equilibrium dissociation constant (KD) is a measure of the propensity of a complex (i.e: a ligand and receptor) to dissociate and is used to describe the affinity of an interaction between the constituents of the complex (i.e: a ligand and receptor). The skilled person will recognise that the lower the KD value, the less of the compound needed to achieve the desired effect, and as a result, the chances of undesirable off-target effects are reduced.
Compound affinity was determined by measuring the association and dissociation of compounds to Human (6-His)Sortilin (RnD Systems) using a Creoptix Wave instrument (Creoptix - Malvern Panalytical). Both Human (6-His)Sortilin immobilisation and compound evaluation were performed in HBS-N running buffer: 10 mM HEPES pH 7.4, 150 mM NaCl, 1 % DMSO - Cytiva which was filtered and degassed for 15 minutes before use.
A 4PCH WAVEchip (Creoptix - Malvern Panalytical) was conditioned prior to immobilisiation using 0.2x HBS-N running buffer with 0.1 M Borate pH 9.0, 1 M NaCl (Xantec Bioanalytics) injected across all flow cells. A buffer exchange was performed to 1x HBS-N running buffer and Human (6-His)Sortilin was immobililised in pH 5.0 Acetate solution (Cytiva) via amine coupling following EDC/NHS (Cytiva) surface activation and then passivated via injection of 50 mM Tris pH 7.4.
Compounds were tested in 'WAVE-RAPID' assays at a single concentration (usually: 1 µM, 10 µM or 100 µM) in time-response format (short pulses of increasing duration) using either 'Weak-Binders' (Settings: 400 µl/min flow rate, 40 Hz acquisiton rate, 5 seconds association time and 20 seconds dissociation time) or 'Intermediate Binders' (Settings: 100 µl/min flow rate, 10 Hz acquisiton rate, 25 seconds association time and 300 seconds dissociation time) settings. Which was deemed most appropriate was based upon the affinity and kinetics of the compound tested.
DMSO calibration was performed as per manufacturers requirements by injection of running buffer containing DMSO 0.5% above that of the running buffer DMSO (1.5 % in that instance) every 20 cycles. All data was double referenced (blank and reference-channel subtracted) with KD values calculated by fitting to a `1:1 kinetic' binding model using 'WAVEcontrol' software (Creoptix - Malvern Panalytical).

Take `CC(C)(C)CCC(C)(NCc1ccc2c(c1)CCC2)C(=O)O` (racemic) [Example 4, 2-{[(5-indanyl)methyl]amino}-2,5,5-trimethylhexanoic acid]: in experiment [1], the IC50 (in general, the concentration at which inhibition is half-maximal) worked out at 1070 nM. In other words, the single-digit micromolar range.

As to `CC(C)(C)CCC(C)(NCc1ccc2c(c1)OCCC2)C(=O)O` (racemic) [Example 5, 2-{[(7-chromanyl)methyl]amino}-2,5,5-trimethylhexanoic acid], the Kd (as a rule, the equilibrium constant for the complex coming apart) in experiment [2] was 713 nM.

Take `CC(C)(C)CCC(C)(NCc1ccc2c(c1)CCCO2)C(=O)O` (racemic) [Example 6, 2-{[(6-chromanyl)methyl]amino}-2,5,5-trimethylhexanoic acid]: the dissociation constant Kd in experiment [2] was found to be 760 nM.

In the case of `CC(C)(C)CCC(C)(NCc1ccc2c(c1)CCOC2)C(=O)O` (racemic) [Example 7, 2-{[(6-isochromanyl)methyl]amino}-2,5,5-trimethylhexanoic acid], the Kd in experiment [2] came to 509 nM.

With `CC(C)(C)CCC(C)(NCc1ccc2c(c1)COCC2)C(=O)O` (racemic) [Example 8, 2-{[(7-isochromanyl)methyl]amino}-2,5,5-trimethylhexanoic acid], the Kd in experiment [2] was 587 nM.

As for `CC(C)(C)CCC(C)(NCc1ccc2c(c1)CCCC2)C(=O)O` (stereo not drawn) [Example 1, 2,5,5-trimethyl-2-(((5,6,7,8-tetrahydronaphthalen-2-yl)methyl)amino)hexanoic acid], the Kd in experiment [2] was 304 nM. In experiment [1], this molecule displayed an IC50 of 740 nM.

As for `CC(C)(C)CC[C@](C)(NCc1ccc2c(c1)CCCC2)C(=O)O` [Example 2, (S)-2,5,5-trimethyl-2-(((5,6,7,8-tetrahydronaphthalen-2-yl)methyl)amino)hexanoic acid], the Kd in experiment [2] was 79 nM. This molecule returned an IC50 in experiment [1] of 440 nM.
